Like-named read-outs stand apart in the source and are kept apart here.
Tests used:
Type in all cases: cell-based, HIV-1
[1] = tested on: HIV-IIIb (wildtype); experiment: Antiviral assay in MT4 cells, HIV-IIIb wildtype; details: read-out: WT EC50
Procedure: (§1) Antiviral Assay in MT4 Cells
(§2) For the antiviral assay, 0.4 μL of 189X test concentration of 3-fold serially diluted compound in DMSO was added to 40 μL of cell growth medium (RPMI 1640, 10% FBS, 1% Penicillin-Streptomycin, 1% L-Glutamine, 1% HEPES) in each well of 384-well plate (10 concentrations) in quadruplicate.
(§3) 1 mL Aliquots of MT4 cells were pre-infected for 3 hours at 37° C. with 25 μL of cell growth medium (mock-infected) or a fresh 1:250 dilution of an HIV-IIIb (wildtype, IN T174I BT, or IN T174I DE) concentrated ABI stock (0.004 m.o.i.). IN T174I BT virus was derived from viral breakthrough (BT) assay as described in Mulato, A.; Hansen, D.; Thielen, A.; Porter, D.; Stepan, G.; White, K.; Daeumer, M.; Cihlar, T.; Yant, S. R. AIDS Research and Human Retrovirues, July 2016, ahead of print. doi:10.1089/aid.2016.0071. IN T174I DE virus was derived from serial passaging with dose escalation (DE) of test compound. Infected and uninfected cells were diluted in cell growth media and 35 μL (2000 cells) was added to each well of the assay plates.
(§4) Assay plates were then maintained in a humidified, 5% CO2 incubator at 37° C. After 5 days of incubation, 25 μl of 2× concentrated CellTiter-Glo™ Reagent (catalog # G7573, Promega Biosciences, Inc., Madison, Wis.) was added to each well of the assay plate. Cell lysis was carried out by incubating at room temperature for 10 minutes and then chemiluminescence was read using an Envision plate reader (PerkinElmer). EC50 values were calculated as the compound concentration that caused a 50% […] in luminescence signal, a measure of HIV-1 replication.

[2] = tested on: HIV-IIIb IN T174I BT; experiment: Antiviral assay in MT4 cells, HIV-IIIb IN T174I BT virus (from viral breakthrough); details: Human immunodeficiency virus 1, IIIB, MT4, 120 h, read-out: T174I BT EC50, MT4 cells, HIV-IIIb IN T174I BT (viral breakthrough), 5 days, CellTiter-Glo
Procedure: as §1, §2, §3, §4

[3] = tested on: HIV-IIIb IN T174I DE; experiment: Antiviral assay in MT4 cells, HIV-IIIb IN T174I DE virus (from dose escalation passaging); details: Human immunodeficiency virus 1, IIIB, MT4, 120 h, read-out: T174I DE EC50, MT4 cells, HIV-IIIb IN T174I DE (dose escalation), 5 days, CellTiter-Glo
Procedure: as §1, §2, §3, §4

[4] = Human immunodeficiency virus 1, IIIB, MT4, 120 h
[5] = Human immunodeficiency virus 1, 120 h, MT4 cells, HIV-IIIb wildtype, 5 days, CellTiter-Glo

## COCCN1CC[C@H](c2nn(C)c3ccc(-c4nc5cc(C)c([C@H](OC(C)(C)C)C(=O)O)c(-c6ccc(Cl)cc6)c5s4)cc23)C1 (single isomer, unassigned) [Compound 68]
[1]; [4]
  EC50: 0.005 µM
[2]
  EC50: 1.16 µM
[3]
  EC50: 1.6 µM

## Cc1cc2nc(-c3ccc4c(c3)c(N3CCC3=O)nn4C)sc2c(-c2ccc(Cl)cc2)c1[C@H](OC(C)(C)C)C(=O)O [Compound 3, (S)-2-(tert-butoxy)-2-(7-(4-chlorophenyl)-5-methyl-2-(1-methyl-3-(2-oxoazetidin-1-yl)-1H-indazol-5-yl)benzo[d]thiazol-6-yl)acetic Acid]
[1]; [4]
  EC50: 0.043 µM
[2]
  EC50: 5.71 µM
[3]
  EC50: 5.71 µM

## Cc1cc2nc(-c3ccc4c(c3)c(N3CCN5CCOC[C@@H]5C3)nn4C)sc2c(-c2ccc(Cl)cc2)c1[C@H](OC(C)(C)C)C(=O)O [Compound 4, (S)-2-(tert-butoxy)-2-(7-(4-chlorophenyl)-2-(3-((S)-hexahydropyrazino[2,1-c][1,4]oxazin-8(1H)-yl)-1-methyl-1H-indazol-5-yl)-5-methylbenzo[d]thiazol-6-yl)acetic Acid]
[1]; [4]
  EC50: 0.01 µM
[2]
  EC50: 1.27 µM
[3]
  EC50: 1.74 µM

## COC(=O)N1CC[C@@H]1CN1CCC(c2nn(C)c3ccc(-c4nc5cc(C)c([C@H](OC(C)(C)C)C(=O)O)c(-c6ccc(Cl)cc6)c5s4)cc23)CC1 [Compound 5, (S)-2-(tert-butoxy)-2-(7-(4-chlorophenyl)-2-(3-(1-(((R)-1-(methoxycarbonyl)azetidin-2-yl)methyl)piperidin-4-yl)-1-methyl-1H-indazol-5-yl)-5-methylbenzo[d]thiazol-6-yl)acetic Acid]
[1]; [4]
  EC50: 0.003 µM
[2]
  EC50: 0.106 µM
[3]
  EC50: 0.169 µM

## Cc1cc2nc(-c3ccc4c(c3)c(C3CCN(CC5CCO5)CC3)nn4C)sc2c(-c2ccc(Cl)cc2)c1[C@H](OC(C)(C)C)C(=O)O (stereo partly drawn) [Compound 6, (2S)-2-(tert-butoxy)-2-(7-(4-chlorophenyl)-5-methyl-2-(1-methyl-3-(1-(oxetan-2-ylmethyl)piperidin-4-yl)-1H-indazol-5-yl)benzo[d]thiazol-6-yl)acetic Acid]
[1]; [4]
  EC50: 0.004 µM
[2]
  EC50: 0.283 µM
[3]
  EC50: 0.577 µM

## CCC(=O)N1CC(N2CCC(c3nn(C)c4ccc(-c5nc6cc(C)c([C@H](OC(C)(C)C)C(=O)O)c(-c7ccc(Cl)cc7)c6s5)cc34)CC2)C1 [Compound 7, (S)-2-(tert-butoxy)-2-(7-(4-chlorophenyl)-5-methyl-2-(1-methyl-3-(1-(1-propionylazetidin-3-yl)piperidin-4-yl)-1H-indazol-5-yl)benzo[d]thiazol-6-yl)acetic Acid]
[1]; [4]
  EC50: 0.014 µM
[2]
  EC50: 0.114 µM
[3]
  EC50: 0.138 µM

## Cc1cc2nc(-c3ccc4c(c3)c(C3CCN(C5CN(C(C)C(F)(F)F)C5)CC3)nn4C)sc2c(-c2ccc(Cl)cc2)c1[C@H](OC(C)(C)C)C(=O)O (stereo partly drawn) [Compound 8, (2S)-2-(tert-butoxy)-2-(7-(4-chlorophenyl)-5-methyl-2-(1-methyl-3-(1-(1-(1,1,1-trifluoropropan-2-yl)azetidin-3-yl)piperidin-4-yl)-1H-indazol-5-yl)benzo[d]thiazol-6-yl)acetic Acid]
[1]; [4]
  EC50: 0.013 µM
[2]
  EC50: 1.09 µM
[3]
  EC50: 1.33 µM

## CC(=O)N1CC[C@H](N2CCC(c3nn(C)c4ccc(-c5nc6cc(C)c([C@H](OC(C)(C)C)C(=O)O)c(-c7ccc(Cl)cc7)c6s5)cc34)CC2)C1 [Compound 11, (S)-2-(2-(3-(1-((S)-1-acetylpyrrolidin-3-yl)piperidin-4-yl)-1-methyl-1H-indazol-5-yl)-7-(4-chlorophenyl)-5-methylbenzo[d]thiazol-6-yl)-2-(tert-butoxy)acetic Acid]
[1]; [4]
  EC50: 0.008 µM
[2]
  EC50: 0.085 µM
[3]
  EC50: 0.166 µM

## CC(=O)N1CC[C@@H](N2CCC(c3nn(C)c4ccc(-c5nc6cc(C)c([C@H](OC(C)(C)C)C(=O)O)c(-c7ccc(Cl)cc7)c6s5)cc34)CC2)C1 [Compound 12, (S)-2-(2-(3-(1-((R)-1-acetylpyrrolidin-3-yl)piperidin-4-yl)-1-methyl-1H-indazol-5-yl)-7-(4-chlorophenyl)-5-methylbenzo[d]thiazol-6-yl)-2-(tert-butoxy)acetic Acid]
[1]; [4]
  EC50: 0.01 µM
[2]
  EC50: 0.081 µM
[3]
  EC50: 0.138 µM

## Cc1cc2nc(-c3ccc4c(c3)c(N3C5CCC3CN(C3COC3)C5)nn4C)sc2c(-c2ccc(Cl)cc2)c1[C@H](OC(C)(C)C)C(=O)O [Compound 13, (2S)-2-(tert-butoxy)-2-(7-(4-chlorophenyl)-5-methyl-2-(1-methyl-3-(3-(oxetan-3-yl)-3,8-diazabicyclo[3.2.1]octan-8-yl)-1H-indazol-5-yl)benzo[d]thiazol-6-yl)acetic Acid]
[1]; [5]
  EC50: 0.01 µM
[2]
  EC50: 1.23 µM
[3]
  EC50: 3.13 µM

## COC(=O)N1CC(N2CCC(c3nn(C(F)F)c4ccc(-c5nc6cc(C)c([C@H](OC(C)(C)C)C(=O)O)c(-c7ccc(Cl)cc7)c6s5)nc34)CC2)C1 [Compound 14, (S)-2-(tert-butoxy)-2-(7-(4-chlorophenyl)-2-(1-(difluoromethyl)-3-(1-(1-(methoxycarbonyl)azetidin-3-yl)piperidin-4-yl)-1H-pyrazolo[4,3-b]pyridin-5-yl)-5-methylbenzo[d]thiazol-6-yl)acetic Acid]
[1]; [4]
  EC50: 0.005 µM
[2]
  EC50: 0.109 µM
[3]
  EC50: 0.304 µM

## Cc1cc2nc(-c3cnc4c(n3)c(C3CCN(C5COC5)CC3)cn4C)sc2c(-c2ccc(Cl)cc2)c1[C@H](OC(C)(C)C)C(=O)O [Compound 16, (S)-2-(tert-butoxy)-2-(7-(4-chlorophenyl)-5-methyl-2-(5-methyl-7-(1-(oxetan-3-yl)piperidin-4-yl)-5H-pyrrolo[2,3-b]pyrazin-2-yl)benzo[d]thiazol-6-yl)acetic Acid]
[1]; [4]
  EC50: 0.002 µM
[2]
  EC50: 0.104 µM
[3]
  EC50: 0.603 µM

## Cc1cc2nc(-c3ccc4c(c3)c(C3=CCOCC3)nn4C)sc2c(-c2ccc(Cl)cc2)c1[C@H](OC(C)(C)C)C(=O)O [Compound 18, (S)-2-(tert-butoxy)-2-(7-(4-chlorophenyl)-2-(3-(3,6-dihydro-2H-pyran-4-yl)-1-methyl-1H-indazol-5-yl)-5-methylbenzo[d]thiazol-6-yl)acetic Acid]
[1]; [4]
  EC50: 0.014 µM
[2]
  EC50: 2.15 µM
[3]
  EC50: 4.5 µM

## Cc1cc2nc(-c3ccc4c(c3)c(C3CCN(C5(C)COC5)CC3)nn4C)sc2c(-c2ccc(Cl)cc2)c1[C@H](OC(C)(C)C)C(=O)O [Compound 20, (S)-2-(tert-butoxy)-2-(7-(4-chlorophenyl)-5-methyl-2-(1-methyl-3-(1-(3-methyloxetan-3-yl)piperidin-4-yl)-1H-indazol-5-yl)benzo[d]thiazol-6-yl)acetic Acid]
[1]; [4]
  EC50: 0.007 µM
[2]
  EC50: 0.287 µM
[3]
  EC50: 0.542 µM

## Cc1cc2nc(-c3ccc4c(c3)c(C3CCN(C5COC5)CC3)nn4C)sc2c(-c2ccc(Cl)cc2)c1[C@H](OC1CC1)C(=O)O [Compound 22, (S)-2-(7-(4-chlorophenyl)-5-methyl-2-(1-methyl-3-(1-(oxetan-3-yl)piperidin-4-yl)-1H-indazol-5-yl)benzo[d]thiazol-6-yl)-2-cyclopropoxyacetic Acid]
[1]; [5]
  EC50: 0.023 µM
[2]
  EC50: 0.048 µM
[3]
  EC50: 0.108 µM

## Cc1cc2nc(-c3ccc4c(c3)c(C3CCN(C(=O)OC(C)(C)C)CC3)nn4C)sc2c(-c2ccc(Cl)cc2)c1[C@H](OC(C)(C)C)C(=O)O [Compound 23, (S)-2-(tert-butoxy)-2-(2-(3-(1-(tert-butoxycarbonyl)piperidin-4-yl)-1-methyl-1H-indazol-5-yl)-7-(4-chlorophenyl)-5-methylbenzo[d]thiazol-6-yl)acetic Acid]
[1]; [4]
  EC50: 0.099 µM
[2]
  EC50: 0.987 µM
[3]
  EC50: 0.356 µM

## Cc1cc2nc(-c3ccc4c(c3)c(N3CCN(C)CC3=O)nn4C)sc2c(-c2ccc(Cl)cc2)c1[C@H](OC(C)(C)C)C(=O)O [Compound 87, (S)-2-(tert-butoxy)-2-(7-(4-chlorophenyl)-5-methyl-2-(1-methyl-3-(4-methyl-2-oxopiperazin-1-yl)-1H-indazol-5-yl)benzo[d]thiazol-6-yl)acetic acid]
[1]; [4]
  EC50: 0.013 µM

## Cc1cc2nc(-c3ccc4c(n3)c(N3CCN(C)CC3)nn4C)sc2c(-c2ccc(Cl)cc2)c1[C@H](OC(C)(C)C)C(=O)O [Compound 196, (S)-2-(tert-butoxy)-2-(7-(4-chloro-phenyl)-5-methyl-2-(1-methyl-3-(4-methylpiperazin-1-yl)-1H-pyrazolo [4,3-b]pyridin-5-yl)benzo[d]thiazol-6-yl)acetic acid]
[1]; [4]
  EC50: 0.004 µM
